Each structure is given as a SMILES string.

The experiment concerns the target T1, human TGR5 (Homo sapiens, UniProt Q8TDU6).
T1 construct: expressed in transfected cells; host or cells: HEK293
T1 sequence (Q8TDU6 1-330): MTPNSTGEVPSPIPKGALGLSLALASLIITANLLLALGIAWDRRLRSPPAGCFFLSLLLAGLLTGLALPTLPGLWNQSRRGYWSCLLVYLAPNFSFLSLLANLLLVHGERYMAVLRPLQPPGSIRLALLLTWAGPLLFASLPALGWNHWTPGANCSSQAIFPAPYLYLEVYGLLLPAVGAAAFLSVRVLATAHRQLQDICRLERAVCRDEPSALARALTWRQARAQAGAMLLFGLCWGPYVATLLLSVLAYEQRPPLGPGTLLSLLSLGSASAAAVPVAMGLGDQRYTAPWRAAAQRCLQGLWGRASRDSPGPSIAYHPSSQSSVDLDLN
Put plainly: Cell-based TGR5 assay (cAMP generation, HTRF). The settings on record: HEK293 cells stably transfected with human TGR5; cAMP by HTRF; 30 minutes at 37° C.; read-out: pEC50 Human TGR5 (converted). A digest of the protocol:
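First, compounds in 3-fold serial dilution were placed in HBSS with 10 mM HEPES pH 7.4 and 0.5 mM IBMX. Next, human TGR5-expressing HEK293 cells were added and incubated 30 min at 37° C. Finally, cAMP was detected by HTRF and pEC50 derived by logistic fitting.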
Take `CNC(=O)CN(C[C@H](O)[C@@H](O)[C@H](O)[C@H](O)CO)C(=O)CCCC(C)c1ccc(Cl)c(CNC2(c3cnccc3-c3ccccc3OC3CC3)CC2)c1` (stereo partly drawn) [Compound I-336, 5-{4-chloro-3-[({1-[4-(2-cyclopropoxyphenyl)pyridin-3-yl]cyclopropyl}amino)methyl]phenyl}-N-[(methylcarbamoyl)methyl]-N-[(2S,3R,4R,5R)-2,3,4,5,6-pentahydroxyhexyl]hexanamide]: the EC50 is less than 100 nM.
Consider `CC(CCCC(=O)N(CCN(C)C)C[C@H](O)[C@@H](O)[C@H](O)[C@H](O)CO)c1ccc(Cl)c(CNC2(c3cnccc3-c3ccccc3OC3CC3)CC2)c1` (stereo partly drawn) [Compound I-337, 5-{4-chloro-3-[({1-[4-(2-cyclopropoxyphenyl)pyridin-3-yl]cyclopropyl}amino)methyl]phenyl}-N-[^2-(dimethylamino)ethyl]-N-[(2S,3R,4R,5R)-2,3,4,5,6-pentahydroxyhexyl]hexanamide], for which the EC50 was 126 to 1000 nM.
As for `COCCCN(C[C@H](O)[C@@H](O)[C@H](O)[C@H](O)CO)C(=O)CCCC(C)c1ccc(Cl)c(CNC2(c3cnccc3-c3ccccc3OC3CC3)CC2)c1` (stereo partly drawn) [Compound I-338, 5-{4-chloro-3-[({11-[4-(2-cyclopropoxyphenyl)pyridin-3-yl]cyclopropyl}amino)methyl]phenyl}-N-(3-methoxypropyl)-N-[(2S,3R,4R,5R)-2,3,4,5,6-pentahydroxyhexyl]hexanamide], the EC50 was less than 100 nM.
Next, `CC(CCCC(=O)N(CC(=O)N(C)C)C[C@H](O)[C@@H](O)[C@H](O)[C@H](O)CO)c1ccc(Cl)c(CNC2(c3cnccc3-c3ccccc3OC3CC3)CC2)c1` (stereo partly drawn) [Compound I-340, 5-{4-chloro-3-[({1-[4-(2-cyclopropoxyphenyl)pyridin-3-yl]cyclopropyl}amino)methyl]phenyl}-N-[(dimethylcarbamoyl)methyl]-N-[(2S,3R,4R,5R)-2,3,4,5,6-pentahydroxyhexyl]hexanamide]: 126 to 1000 nM; `CC(CCCC(=O)N(C[C@@H](O)[C@H](O)[C@@H](O)[C@@H](O)CO)CC(C)(C)CO)c1ccc(Cl)c(CNC2(c3cnccc3-c3ccccc3OC3CC3)CC2)c1` (stereo partly drawn) [Compound I-341, 5-{4-chloro-3-[({1-[4-(2-cyclopropoxyphenyl)pyridin-3-yl]cyclopropyl}amino)methyl]phenyl}-N-(3-hydroxy-2,2-dimethylpropyl)-N-[(2R,3S,4S,5S)-2,3,4,5,6-pentahydroxyhexyl]hexanamide]: less than 100 nM; `CC(CCCC(=O)N(CCOCCO)C[C@H](O)[C@@H](O)[C@H](O)[C@H](O)CO)c1ccc(Cl)c(CNC2(c3cnccc3-c3ccccc3OC3CC3)CC2)c1` (stereo partly drawn) [Compound I-342, 5-{4-chloro-3-[({1-[4-(2-cyclopropoxyphenyl)pyridin-3-yl]cyclopropyl]amino)methyl]phenyl}-N-[2-(2-hydroxyethoxy)ethyl]-N-[(2S,3R,4R,5R)-2,3,4,5,6-pentahydroxyhexyl]hexanamide]: less than 100 nM.
Consider `CC(CCCC(=O)N(C[C@@H](O)[C@H](O)[C@@H](O)[C@@H](O)CO)[C@H]1CC[C@@H](O)CC1)c1ccc(Cl)c(CNC2(c3cnccc3-c3ccccc3OC3CC3)CC2)c1` (stereo partly drawn) [Compound I-343, 5-{4-chloro-3-[({1-[4-(2-cyclopropoxyphenyl)pyridin-3-yl]cyclopropyl}amino)methyl]phenyl}-N-[(2R,3S,4S,5S)-2,3,4,5,6-pentahydroxyhexyl]-N-[(1s,4s)-4-hydroxycyclohexyl]hexanamide], for which the EC50 was less than 100 nM.
For `CCNC(=O)CCN(C[C@H](O)[C@@H](O)[C@H](O)[C@H](O)CO)C(=O)CCCC(C)c1ccc(Cl)c(CNC2(c3cnccc3-c3ccccc3OC3CC3)CC2)c1` (stereo partly drawn) [Compound I-344, 5-{4-chloro-3-[({1-[4-(2-cyclopropoxyphenyl)pyridin-3-yl]cyclopropyl}amino)methyl]phenyl}-N-[2-(ethylcarbamoyl)ethyl]-N-[(2S,3R,4R,5R)-2,3,4,5,6-pentahydroxyhexyl]hexanamide] the value was 126 to 1000 nM.

Values taken from patent US12084472B2 (Ardelyx, Inc., priority 2015, dated 2024).
